In ChEMBL document CHEMBL1909046, “DrugMatrix in vitro pharmacology data”:

Tests used:
[1] = target: C-C chemokine receptor type 5 (Homo sapiens, UniProt P51681); assay type: cell membranes, Membrane; conditions: hek293; further: in other assays of this panel Not Active means under 50% inhibition at 10 µM
[2] = target: T1, Neutrophil elastase (Homo sapiens, UniProt P08246); assay type: tissue-based;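 further: inhibition of neutrophil elastase enzyme activity, measured with a p-nitroanilide-linked peptide substrate; in other assays of this panel Not Active means under 50% inhibition at 10 µM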
T1 sequence (P08246 whole entry): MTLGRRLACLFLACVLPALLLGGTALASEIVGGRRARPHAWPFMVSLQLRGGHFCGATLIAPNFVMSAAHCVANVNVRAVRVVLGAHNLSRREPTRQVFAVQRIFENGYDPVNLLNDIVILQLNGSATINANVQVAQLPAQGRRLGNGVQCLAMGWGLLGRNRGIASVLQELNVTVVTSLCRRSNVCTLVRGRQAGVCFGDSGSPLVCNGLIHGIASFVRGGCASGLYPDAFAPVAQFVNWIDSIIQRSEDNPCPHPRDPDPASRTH

[3] = target: T2, Neuropeptide Y receptor type 2 (Homo sapiens, UniProt P49146); assay type: cell membranes, Membrane; conditions: kan-ts; further: in other assays of this panel Not Active means under 50% inhibition at 10 µM
T2 sequence (P49146 whole entry): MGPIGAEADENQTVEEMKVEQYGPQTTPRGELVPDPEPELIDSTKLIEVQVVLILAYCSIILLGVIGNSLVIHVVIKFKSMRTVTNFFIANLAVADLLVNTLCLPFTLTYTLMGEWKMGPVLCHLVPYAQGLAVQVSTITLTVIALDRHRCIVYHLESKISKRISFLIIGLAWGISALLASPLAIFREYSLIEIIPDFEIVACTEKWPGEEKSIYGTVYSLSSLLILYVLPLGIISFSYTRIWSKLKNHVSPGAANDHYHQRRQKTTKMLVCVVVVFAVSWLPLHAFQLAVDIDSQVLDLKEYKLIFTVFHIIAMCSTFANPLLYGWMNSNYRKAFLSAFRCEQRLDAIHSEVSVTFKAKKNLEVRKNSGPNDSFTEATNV

[4] = target: T3, Nitric oxide synthase, inducible (Mus musculus, UniProt P29477); parameters: species or system Escherichia coli;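 further: inhibition of iNOS enzyme activity measured with L-arginine as substrate; in other assays of this panel Not Active means under 50% inhibition at 10 µM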
T3 sequence (P29477 whole entry): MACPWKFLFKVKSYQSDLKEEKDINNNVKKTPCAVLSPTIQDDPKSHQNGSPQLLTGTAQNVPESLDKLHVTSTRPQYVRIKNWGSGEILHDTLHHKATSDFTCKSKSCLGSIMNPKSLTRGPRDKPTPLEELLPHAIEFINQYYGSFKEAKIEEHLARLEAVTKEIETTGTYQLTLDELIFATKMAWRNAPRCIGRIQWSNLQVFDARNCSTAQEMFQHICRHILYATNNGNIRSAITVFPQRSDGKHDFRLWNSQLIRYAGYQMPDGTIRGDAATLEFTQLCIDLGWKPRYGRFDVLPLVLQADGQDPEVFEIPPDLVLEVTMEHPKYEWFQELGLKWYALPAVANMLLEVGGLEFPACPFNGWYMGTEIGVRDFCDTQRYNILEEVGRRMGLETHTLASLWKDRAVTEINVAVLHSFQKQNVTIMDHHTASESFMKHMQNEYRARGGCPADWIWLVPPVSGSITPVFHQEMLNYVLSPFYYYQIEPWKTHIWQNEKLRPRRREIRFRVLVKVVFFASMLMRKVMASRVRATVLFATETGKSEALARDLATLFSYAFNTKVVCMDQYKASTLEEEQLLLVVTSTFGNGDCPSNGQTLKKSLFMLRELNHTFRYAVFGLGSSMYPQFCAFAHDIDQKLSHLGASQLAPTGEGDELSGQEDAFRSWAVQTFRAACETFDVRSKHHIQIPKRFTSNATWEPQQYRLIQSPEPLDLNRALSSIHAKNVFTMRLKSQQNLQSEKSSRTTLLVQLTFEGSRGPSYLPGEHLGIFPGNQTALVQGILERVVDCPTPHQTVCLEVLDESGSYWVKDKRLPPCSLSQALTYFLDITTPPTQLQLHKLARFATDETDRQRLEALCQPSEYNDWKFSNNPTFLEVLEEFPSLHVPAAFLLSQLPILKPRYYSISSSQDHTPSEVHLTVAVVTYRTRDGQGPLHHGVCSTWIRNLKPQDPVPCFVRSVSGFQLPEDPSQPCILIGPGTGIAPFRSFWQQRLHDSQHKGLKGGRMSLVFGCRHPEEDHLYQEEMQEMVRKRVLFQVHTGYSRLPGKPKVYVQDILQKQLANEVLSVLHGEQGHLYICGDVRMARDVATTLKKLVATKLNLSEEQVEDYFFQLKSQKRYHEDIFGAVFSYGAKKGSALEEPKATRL

[5] = target: T4, C-X-C chemokine receptor type 2 (Homo sapiens, UniProt P25025); assay type: cell membranes, Membrane; conditions: cho-k1; further: in other assays of this panel Not Active means under 50% inhibition at 10 µM
T4 sequence (P25025 whole entry): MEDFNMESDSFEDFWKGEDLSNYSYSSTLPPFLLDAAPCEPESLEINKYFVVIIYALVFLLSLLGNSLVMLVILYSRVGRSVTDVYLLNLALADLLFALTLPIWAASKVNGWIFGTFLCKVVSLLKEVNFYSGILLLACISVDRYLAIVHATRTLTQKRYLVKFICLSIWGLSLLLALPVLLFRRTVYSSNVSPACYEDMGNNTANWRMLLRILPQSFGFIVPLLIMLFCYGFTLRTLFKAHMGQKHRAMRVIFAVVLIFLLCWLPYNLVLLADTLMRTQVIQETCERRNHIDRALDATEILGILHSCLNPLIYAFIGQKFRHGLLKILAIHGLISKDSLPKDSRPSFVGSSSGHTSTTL

[6] = DRUGMATRIX: Calcium Channel Type L, Dihydropyridine radioligand binding (ligand: [3H] Nitrendipine); assay type: cell membranes, Rattus norvegicus, Wistar, Cerebral cortex, Membrane; conditions: Not Active = under 50% inhibition at 10 µM
[7] = target: Sigma non-opioid intracellular receptor 1 (Homo sapiens, UniProt Q99720); experiment: DRUGMATRIX: Sigma1 radioligand binding (ligand: [3H] Haloperidol); assay type: cell membranes, Jurkat, Membrane; conditions: jurkat; Not Active = under 50% inhibition at 10 µM
Sigma non-opioid intracellular receptor 1, sequence (Q99720 whole entry): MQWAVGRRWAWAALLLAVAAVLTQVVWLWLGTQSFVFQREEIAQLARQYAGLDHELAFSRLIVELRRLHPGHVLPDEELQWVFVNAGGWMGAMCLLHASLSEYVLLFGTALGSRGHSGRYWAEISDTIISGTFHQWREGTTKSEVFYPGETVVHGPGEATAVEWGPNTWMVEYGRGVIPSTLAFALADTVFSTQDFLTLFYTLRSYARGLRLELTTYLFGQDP

C-C chemokine receptor type 5, sequence (P51681 whole entry): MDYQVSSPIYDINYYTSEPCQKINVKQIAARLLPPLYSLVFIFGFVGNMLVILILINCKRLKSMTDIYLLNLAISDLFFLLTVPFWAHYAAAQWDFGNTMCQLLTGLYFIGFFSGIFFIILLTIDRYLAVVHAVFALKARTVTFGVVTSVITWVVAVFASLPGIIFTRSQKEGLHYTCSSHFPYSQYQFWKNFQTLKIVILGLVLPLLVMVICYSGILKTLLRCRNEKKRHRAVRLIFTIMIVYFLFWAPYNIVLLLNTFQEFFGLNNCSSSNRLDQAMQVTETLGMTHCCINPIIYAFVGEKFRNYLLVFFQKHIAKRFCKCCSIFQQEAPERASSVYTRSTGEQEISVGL

Row | SMILES | IC50 [1] | IC50 [2] | IC50 [3] | IC50 [4] | IC50 [5] | IC50 [6] | Ki [6] | IC50 [7] | IC50 ([6]; read-out: IC50) | Ki ([6]; read-out: Ki)
1 | CCOc1nc2cccc(C(=O)O)c2n1Cc1ccc(-c2ccccc2-c2nnn[nH]2)cc1 | Not Active | Not Active | Not Active | Not Active | Not Active | Not Active | Not Active | Not Active |  | 
2 | O=C(O)CCCc1cccs1 | Not Active | Not Active | Not Active | Not Active | Not Active | Not Active | Not Active | Not Active |  | 
3 | COc1ccccc1N | Not Active | Not Active | Not Active | Not Active | Not Active | Not Active | Not Active | Not Active |  | 
4 | O=C(c1ccccc1F)N1CCC(Cc2ccccc2)CC1 | Not Active | Not Active | Not Active | Not Active | Not Active | Not Active | Not Active | Not Active |  | 
5 | Cc1c(O)cccc1C(=O)N[C@@H](CSc1ccccc1)[C@H](O)CN1C[C@H]2CCCC[C@H]2C[C@H]1C(=O)NC(C)(C)C | Not Active | Not Active | Not Active | Not Active | Not Active |  |  | Not Active | 9.84 µM | 6.32 µM
6 | CC(O)COC[C@H]1O[C@@H]2O[C@H]3[C@H](O)[C@@H](O)[C@@H](O[C@H]4[C@H](O)[C@@H](O)[C@@H](O[C@H]5[C@H](O)[C@@H](O)[C@@H](O[C@H]6[C@H](O)[C@@H](O)[C@@H](O[C@H]7[C@H](O)[C@@H](O)[C@@H](O[C@H]8[C@H](O)[C@@H](O)[C@@H](O[C@H]1[C@H](O)[C@H]2O)O[C@@H]8COCC(C)O)O[C@@H]7COCC(C)O)O[C@@H]6COCC(C)O)O[C@@H]5COCC(C)O)O[C@@H]4COCC(C)O)O[C@@H]3COCC(C)O (stereo partly drawn) [2-HYDROXYPROPYL-BETA-CYCLODEXTRIN] | Not Active | Not Active | Not Active | Not Active | Not Active | Not Active | Not Active | Not Active |  | 
7 | NC(=O)c1cccc(N)c1 [3-AMINOBENZAMIDE] | Not Active | Not Active | Not Active | Not Active | Not Active | Not Active | Not Active | Not Active |  | 
8 | C[C@H]1O[C@H](O[C@H]2[C@H](O)[C@@H](O)[C@@H](O[C@H]3[C@H](O)[C@@H](O)C(O)O[C@@H]3CO)O[C@@H]2CO)[C@H](O)[C@@H](O)[C@@H]1N[C@H]1C=C(CO)[C@@H](O)[C@H](O)[C@H]1O (some centres undefined) [ACARBOSE] | Not Active | Not Active | Not Active | Not Active | Not Active | Not Active | Not Active | Not Active |  | 
9 | CC[C@H]1[C@@H]2C[C@H]3[C@@H]4N(C)c5ccccc5[C@]45C[C@@H]([C@@H]2[C@H]5O)N3[C@@H]1O [AJMALINE] | Not Active | Not Active | Not Active | Not Active | Not Active | Not Active | Not Active | Not Active |  | 
10 | NC12CC3CC(CC(C3)C1)C2 [AMANTADINE] | Not Active | Not Active | Not Active | Not Active | Not Active | Not Active | Not Active | Not Active |  | 
11 | COc1cc(OC)c(C(=O)CCCN2CCCC2)c(OC)c1 [BUFLOMEDIL] | Not Active | Not Active | Not Active | Not Active | Not Active | Not Active | Not Active |  |  | 
12 | CN1CCN(C(c2ccccc2)c2ccccc2)CC1 [CYCLIZINE] | Not Active | Not Active | Not Active | Not Active | Not Active | Not Active | Not Active |  |  | 
